The source of these data is patent US20170291890A1 (Epizyme, Inc., priority 2014, published 2017).

The target in the first experiment is T1, KDM5A (Homo sapiens, UniProt P29375).
T1 construct: C-terminal FLAG-tagged KDM5A^1-1090 was purchased from BPS Biosciences; FLAG (C); purchased BPS Biosciences
T1 sequence (P29375 1-1090): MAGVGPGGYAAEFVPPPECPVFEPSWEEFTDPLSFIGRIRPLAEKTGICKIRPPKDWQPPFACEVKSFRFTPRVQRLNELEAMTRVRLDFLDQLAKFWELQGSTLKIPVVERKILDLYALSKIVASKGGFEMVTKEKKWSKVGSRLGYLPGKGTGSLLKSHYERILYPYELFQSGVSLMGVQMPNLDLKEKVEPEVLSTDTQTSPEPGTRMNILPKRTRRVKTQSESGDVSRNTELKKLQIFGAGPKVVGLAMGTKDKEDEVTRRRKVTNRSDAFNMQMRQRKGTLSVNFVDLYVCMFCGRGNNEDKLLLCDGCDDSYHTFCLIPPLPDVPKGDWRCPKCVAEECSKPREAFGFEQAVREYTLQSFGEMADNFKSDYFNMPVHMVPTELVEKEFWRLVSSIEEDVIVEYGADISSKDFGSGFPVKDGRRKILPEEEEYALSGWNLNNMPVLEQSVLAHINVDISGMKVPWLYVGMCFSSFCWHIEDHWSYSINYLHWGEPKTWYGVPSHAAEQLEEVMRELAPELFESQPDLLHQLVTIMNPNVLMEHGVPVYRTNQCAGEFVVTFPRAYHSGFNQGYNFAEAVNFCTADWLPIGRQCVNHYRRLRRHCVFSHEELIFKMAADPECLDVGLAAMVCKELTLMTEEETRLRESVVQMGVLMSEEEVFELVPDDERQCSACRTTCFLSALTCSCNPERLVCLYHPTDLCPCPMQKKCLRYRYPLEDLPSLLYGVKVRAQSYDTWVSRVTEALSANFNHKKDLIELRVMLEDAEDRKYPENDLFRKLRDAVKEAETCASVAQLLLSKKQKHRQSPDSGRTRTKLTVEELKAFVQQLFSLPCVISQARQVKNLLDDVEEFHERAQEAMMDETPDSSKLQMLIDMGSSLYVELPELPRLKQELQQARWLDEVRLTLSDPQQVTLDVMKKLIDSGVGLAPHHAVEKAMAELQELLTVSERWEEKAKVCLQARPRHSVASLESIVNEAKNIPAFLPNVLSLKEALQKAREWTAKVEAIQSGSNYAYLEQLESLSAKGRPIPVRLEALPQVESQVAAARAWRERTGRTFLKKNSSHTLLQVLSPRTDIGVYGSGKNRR
Put plainly: KDM5A Assay (SAMDI mass spectrometry demethylase assay). In kind it is biochemical. Conditions: C-terminal FLAG-tagged KDM5A 1-1090; class symbols; read-out: 5A IC50. The essentials:
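FLAG-tagged KDM5A 1-1090 (20 nM) preincubated 30 min with compound in pH 8.0 HEPES buffer with ascorbate, Fe(II), TCEP, then reacted 150 min at 25 °C with H3K4me3 peptide (250 nM) and 2-oxoglutarate (15 μM). Formic acid-quenched; SAMDI-MS substrate/product AUC conversion; IC50 from dose-response.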
Consider `Cn1nc(Nc2cnccc2C(=O)O)cc1-c1ccccc1` [Compound 5], for which the IC50 (commonly the midpoint of a concentration-inhibition curve) was in the range of 100 to 1000 nM. Take `Cc1nn([C@H]2CC[C@@H](N)CC2)cc1Nc1cnccc1C(=O)O` [Compound 80, 3-((1-((cis)-4-aminocyclohexyl)-3-methyl-1H-pyrazol-4-yl)amino)isonicotinic acid]: the IC50 was in the range of 1 to 100 nM.

For the compound `CCc1c(Nc2cnccc2C(=O)O)cnn1-c1ccccc1` [Compound 81, 3-((5-ethyl-1-phenyl-1H-pyrazol-4-yl)amino)isonicotinic acid], the IC50 was 1000 to 10000 nM. Still for that read-out and setting: to `Cc1ccc(-n2cc(Nc3cnccc3C(=O)O)c(C)n2)cc1` [Compound 82] belongs 1 to 100 nM. On the same count and under the same terms, to `NC1CCC(n2nc(-c3cccc(Cl)c3)cc2Nc2cnccc2C(=O)O)CC1` (centres unmarked) [Compound 85, 3-((1-(4-aminocyclohexyl)-3-(3-chlorophenyl)-1H-pyrazol-5-yl)amino)isonicotinic acid] belongs 1000 to 10000 nM; to `O=C(O)c1ccncc1Nc1cc(-c2cccc(Cl)c2)n(C2CCC3(CC2)OCCO3)n1` [Compound 86, 3-((5-(3-chlorophenyl)-1-(1,4-dioxaspiro[4.5]decan-8-yl)-1H-pyrazol-3-yl)amino)isonicotinic acid], 1000 to 10000 nM. In the case of `NC1CCC(n2nc(Nc3cnccc3C(=O)O)cc2-c2cccc(Cl)c2)CC1` (centres unmarked) [Compound 87, 3-((1-(4-aminocyclohexyl)-5-(3-chlorophenyl)-1H-pyrazol-3-yl)amino)isonicotinic acid], the IC50 was 1000 to 10000 nM. Same read-out and setting: then `O=C(O)c1ccncc1Nc1nn(-c2ccccc2)cc1-c1ccncc1` [Compound 88, 3-((1-phenyl-4-(pyridin-4-yl)-1H-pyrazol-3-yl)amino) isonicotinic acid], with 100 to 1000 nM; and `Cc1nn(C2CCN(CC3CC3)CC2)cc1Nc1cnccc1C(=O)O` [Compound 89, 3-(1-(1-(cyclopropylmethyl)piperidin-4-yl)-3-methyl-1H-pyrazol-4-ylamino)isonicotinic acid], with 100 to 1000 nM; and `Cc1c(Nc2cnccc2C(=O)O)cnn1C1CCN(CC2CC2)CC1` [Compound 90, 3-(1-(1-(cyclopropylmethyl)piperidin-4-yl)-5-methyl-1H-pyrazol-4-ylamino) isonicotinic acid], with 1000 to 10000 nM. On the same count and under the same terms, to `Cc1nn(C2CCN(C3CN(C)C3)CC2)cc1Nc1cnccc1C(=O)O` [Compound 91, 3-(3-methyl-1-(1-(1-methylazetidin-3-yl)piperidin-4-yl)-1H-pyrazol-4-ylamino)isonicotinic acid] belongs 100 to 1000 nM; to `Cc1c(Nc2cnccc2C(=O)O)cnn1C1CCN(C2CN(C)C2)CC1` [Compound 92, 3-(5-methyl-1-(1-(1-methylazetidin-3-yl)piperidin-4-yl)-1H-pyrazol-4-ylamino)isonicotinic acid], 1000 to 10000 nM; to `COC(=O)c1ccncc1Nc1cn(C2CCN(C3CCC3)CC2)nc1C` [Compound 93, methyl 3-((1-(1-cyclobutylpiperidin-4-yl)-3-methyl-1H-pyrazol-4-yl)amino)isonicotinate], 10000 to 100000 nM. For `Cc1nn(C2CCN(C3CCC3)CC2)cc1Nc1cnccc1C(=O)O` [Compound 94, 3-(1-(1-cyclobutylpiperidin-4-yl)-3-methyl-1H-pyrazol-4-ylamino)isonicotinic acid], the IC50 lay within 100 to 1000 nM. Turning to `COC(=O)c1ccncc1Nc1cnn(C2CCN(C3CCC3)CC2)c1C` [Compound 95, methyl 3-((1-(1-cyclobutylpiperidin-4-yl)-5-methyl-1H-pyrazol-4-yl)amino)isonicotinate], the IC50 lay within 10000 to 100000 nM. Regarding `CN1CCC(n2ncc(Nc3cnccc3C(=O)O)c2-c2ccccc2)CC1` [Compound 126, 3-(1-(1-methylpiperidin-4-yl)-5-phenyl-1H-pyrazol-4-ylamino) isonicotinic acid], the concentration for half-maximal inhibition (IC50) lay in the range of 1000 to 10000 nM.

The experiment is the same for the next values; noted with them: C-terminal FLAG-tagged KDM5A 1-1090; numeric bound; read-out: 5A IC50.
On to `Cn1ncc(-c2cccnc2)c1Nc1cnccc1C(=O)O` [Compound 4], for which the IC50 is over 100000 nM.
